# Assay results: US9862762B2, “Monoclonal antibodies which bind human periostin” (MEDIMMUNE, LLC, priority 2014, dated 2018)
# Values joined by “and” are separate entries in the source; they are usually repeats but may differ in a detail not shown here. Equal entries are not always repeated.
# Key:
# [1] = tested on: adults with uncontrolled, severe asthma; experiment: Phase 2b study CD-RI-CAT-354-1049 of SC tralokinumab, subgroup analysis by baseline serum periostin; format: in vivo, human; details: for Asthma exacerbation rate reduction: tralokinumab 300 mg Q2W vs placebo; for Change from baseline in ACQ-6 / Change from baseline in AQLQ / Percent change from baseline in FEV1: tralokinumab 300 mg Q2W
# Description: A 5-week screening/run-in period (Week-5 to -1 [Day-1]) preceded randomisation. Starting at Week-4 (Day-28), patients received a fixed-dose combination product of fluticasone/salmeterol, either as an MDI (230 μg/21 μg) at a dose of 2 inhalations twice per day or as a DPI (500 μg/50 μg) at a dose of one inhalation twice per day. If the patient was also taking additional asthma controller medications (including leukotriene modifiers, theophylline, cromones, a secondary ICS, or oral prednisolone ≦20 mg/day or equivalent OCS), then these medications were to be continued at a stable dose during the screening/run-in and treatment period.
# Patients were randomised in a 1:1 ratio to one of 2 cohorts (Cohort 1 or Cohort 2).
# The median periostin level used in the study to define high periostin was a baseline serum periostin of ≧23 ng/mL (i.e., high periostin) as measured using an immunoassay.
# FIGS. 11A-B; TABLE 4. The median periostin level used in the study to define high periostin was a baseline serum periostin of about ≧23 ng/mL (i.e., high periostin) as measured using an immunoassay. For a continuous representation of AER reduction by periostin level and percent change from baseline in pre-bronchodilator FEV, by serum periostin level, see FIG. 10.
# [2] = tested on: patients with uncontrolled asthma; details: above-median vs below-median baseline serum periostin; cited from earlier work
# [3] = tested on: EPIAIRWAY tissue (normal and asthmatic lung epithelium); experiment: Periostin levels in IL-13 stimulated […] tissue models; format: cell-based, human; details: stimulation with 50 ng/mL IL-13 for 48 hours (FIG. 6)
# Description: FIG. 6: Periostin levels in IL-13 Stimulated […]™ Models (Normal and Asthmatic Lung Epithelium). Detection of periostin levels in […]™ tissue obtained from either normal healthy individuals or from asthma patients each receiving different treatments: Advair only; oral and inhaled steroids; no medication; or albuterol only. Periostin levels were determined using the biotin/streptavidin-HRP sandwich ELISA assay using 4B4.B11 as the capture antibody and biotinylated 7B5.C4 as the detection antibody. Samples receiving steroid were pre-treated for 6 hrs with 100 nM budesonide. Samples were either unstimulated or stimulated with 50 ng/mL IL-13±budesonide for 48 hours. Periostin levels increase following stimulation with IL-13. This increase is reduced with steroid treatment.
# The assay provided in this disclosure was further used to measure periostin levels in the […]™ tissue model. EpiAirway tissue models were obtained from MatTek corporation. These tissues are a 3-D model of respiratory tract tissue obtained from either normal healthy individuals or from asthma patients. The model was used to evaluate 1 normal donor and 4 asthma donors. The 4 asthma donors each had received different treatments: Advair only; oral and inhaled steroids; no medication; or albuterol only. All tissue samples were cultured in appropriate cell culture media (provided from MatTek) for 24 hrs prior to stimulation. […]
# [4] = post hoc, 300 mg Q2W, FEV1 reversibility≧12% and serum periostin≧median at baseline
substance,measurement,setting,value
tralokinumab,percent change from baseline in pre-bronchodilator FEV1 over time,"[1]; 300 mg Q2W group, through to Week 53, (FIG. 11B)",No significant increases in FEV1
same,percent change from baseline in pre-bronchodilator FEV1 over time,"[1]; 300 mg Q2W group, through to Week 53, periostin >=median (FIG. 11A)",Relative increases in FEV1 were observed
same,percent change from baseline in pre-bronchodilator FEV1 over time,"[1]; Q2/4W group, through to Week 53, (FIG. 11B)",No significant increases in FEV1
same,reduction in serum periostin levels,[1]; patients with baseline serum periostin above the median compared to those below the median,Greater reduction
same,percentage increase from baseline in pre-bronchodilator FEV1 compared to placebo,[1]; [4],13.85%
same,reduction in AER,[1]; [4],54%
same,Asthma exacerbation rate reduction,"[1]; Week 53, ITT (N = 150)",7%
same,Asthma exacerbation rate reduction,"[1]; Week 53, baseline serum Periostin ≧ Median",25%
same,Change from baseline in ACQ-6,[1]; ITT,−0.18
same,Change from baseline in AQLQ,[1]; ITT,0.21
same,Change from baseline in ACQ-6,[1]; Periostin < Median,−0.02
same,Change from baseline in AQLQ,[1]; Periostin < Median,0.21
same,Change from baseline in ACQ-6,[1]; Periostin ≧ Median,−0.23
same,Change from baseline in AQLQ,[1]; Periostin ≧ Median,0.22
same,Percent change from baseline in FEV1,"[1]; Week 53, ITT / regardless of serum periostin level",7.1%
same,Percent change from baseline in FEV1,"[1]; Week 53, Periostin < Median",7.06%
same,Percent change from baseline in FEV1,"[1]; Week 53, Periostin ≧ Median",6.75% and 6.8%
lebrikizumab,increases in FEV1,[2],larger increases in FEV1
IL-13: 114 amino acid cytokine used to stimulate periostin expression,Periostin levels,[3],increase
